# Laboratory results published in patent US20070082910A1, “Specific nad(p)h oxidase inhibitor” (Mitsubishi Pharma Corporation, priority 2003, published 2007).
# Marks after values point to notes of the source that are not given here.
# Columns and labels:
# [1] = test system: NAD(P)H oxidase in normal rat aorta; assay: Effect on normal rat NAD(P)H oxidase (superoxide anion production in aorta after administration); assay type: in vivo; details: 10 mg/kg for 3 days
# Method: The test compound (10 mg/kg) was administered to normal male Wistar rats (Japan SLC) for 3 days, and the production amount of superoxide anion in the aorta was measured in the same manner as in Experimental Example 2.
# The inhibitory rate (%) was calculated by the following formula: inhibitory rate (%)=100−(A/B)×100 wherein A is the standardized chemiluminescence value of the rats administered with the test compound, and B is the standardized chemiluminescence value of the rats without administration of the test compound (control group).
# [2] = test system: leukocyte NADPH oxidase; assay: Effect on leukocyte NADPH oxidase (PMA-stimulated lucigenin chemiluminescence); assay type: cell-based, rat
# Method: Blood was drawn from the abdominal aorta of normal male Wister rats (Japan SLC) and immediately mixed with an ice-cold lysis buffer at 42 mL of the buffer per 3 mL of the blood.
# After 5 min, the mixture was centrifuged at 4° C., 1100 rpm for 5 min. The precipitate was suspended in an ice-cold Lysis buffer, and centrifuged again at 4° C., 1100 rpm for 5 min. This operation was repeated 3 times to obtain leukocytes. The obtained leukocytes were suspended in Krebs-Hepes buffer and the number of the cells was adjusted to 1×10^6/ml. 0.25 mM Lucigenin and the test agent were added, Phorbol 12-myristate 13-acetate (hereinafter to be indicated as “PMA”, SIGMA) was further added, and the chemiluminescence value was measured at 37° C. for 10 min.
# The inhibitory rate (%) was calculated by the following formula: inhibitory rate (%)=100−[(A−C)/(B−C))×[…] wherein A is the total chemiluminescence value of the leukocyte suspension with the addition of the test compound, B is the total chemiluminescence value of the leukocyte suspension (control) without addition of the test compound, and C is the total chemiluminescence value of the leukocyte suspension without stimulation with PMA.
# [3] = test system: rabbit myocardial infarction model; assay: Rabbit ischemia-reperfusion myocardial infarction model; assay type: in vivo; details: 1 mg/kg 1 hr before ligation; normal group as 100%
# Source text: Male NZW rabbits (Japan SLC) were fixed in the dorsal position and subjected to thoracotomy with pentobarbital anesthesia. A silk thread (No. 4) was applied to the proximal left coronary artery, a polyethylene tube (length 1 cm) was further applied and the left coronary artery was ligated using a thread. After 2 hr from the ligation, the thread on the polyethylene tube was cut to reperfusion. After 4 hr from the reperfusion, the proximal coronary artery was ligated using a silk thread (No. 4), and 3% Evans blue solution (1 mL/kg) was intravenously administered. After 5 min, an excess pentobarbital was administered and the heart and aorta were removed. The heart was cut into a 3 mm-wide annular shape, and the left ventricle area and ischemia region (Evans blue unstained region) were traced.
# After incubation in 1% TTC solution for 30 min, an infarction focus (TTC unstained region) was traced. Compound A (1 mg/kg) was administered 1 hr before the ligation.
# The ratios of the ischemic region and infarction focus to the left ventricle area were calculated. […]
# This suspension was centrifuged at 3000 rpm for 10 min, and the supernatant (8 mL) was centrifuged at 15000 rpm for 15 min. The obtained supernatant was mixed with phosphate buffer containing o-dianisidine dihydrochloride, kept at 25° C. for 30 min, the absorbance (OD460) was measured, and the myeloperoxidase (MPO) activity was determined. […]
# [4] = test system: p22^Phox; assay: Effect on p22^Phox expression induced by oxidized LDL in HUVEC (RT-PCR); assay type: cell-based, human
# Method: HUVEC was seeded in a 24-well collagen-coated plate. Compound A was added, and oxidized LDL (100 μg/mL) prepared from the blood obtained from normal healthy volunteers was added 24 hr later.
# At 24 hr after the oxidized LDL addition, total RNA was […] extracted using MgExtractor (TOYOBO) and DNase I treatment (Nippon gene) was conducted.
# The concentration of the total RNA was calculated by measuring absorbance (OD260) of a fraction therefrom.
# Using the obtained total RNA (100 ng), RT (reverse transcription) reaction (ABI) was carried out to synthesis cDNA.
# Using the synthesized cDNA (10 μL), PCR (polymerase chain reaction) was carried out (ABI), and expression amounts of p22^Phox which is a major component of NAD(P)H oxidase, and β-actin as an internal standard were measured.
# The expression amount of p22^Phox was standardized to the expression amount of β-actin and expressed based on the expression amount of (p22^Phox)/( β-actin) of normal as 100%.
# [5] = test system: NAD(P)H oxidase in diabetic rat aorta; assay: NAD(P)H oxidase activity (superoxide anion production, lucigenin chemiluminescence) in aorta of streptozotocin diabetic rats after oral administration; assay type: in vivo; details: for inhibitory rate (%), NAD(P)H oxidase in diabetic rat aorta: once a day for 3 days
# Method: Streptozotocin (40 mg/kg) dissolved in 0.05 M citric acid buffer (pH 4.5) was administered into the tail vein of male Wistar rats (Japan SLC) to prepare diabetic rats. At 1 week to 8 weeks from the intravenous injection of streptozotocin, blood was drawn from the tail vein using a capillary treated with heparin, which was immediately cooled with ice and centrifuged at 3000 rpm, 15 min, 4° C. to give serum. The blood glucose level was measured by enzyme assay using a glucose measurement kit “GLU neo sinotest” (sinotest) and a microplate reader (SPECTRA MAX250, Molecular Devices).
# The NAD(P)H oxidase activity was measured by the following method, which was modified by the method of the David. G. Harrison et al. (J. Clin. Invest. 91, 2546-2551, 1993), at 4 days from the start of the test, with superoxide anion production in aorta as an index.
# To be specific, normal rat or diabetic rat free of the above-mentioned treatment was exsanguinated from the abdominal aorta, their thoracic aorta was removed. The removed thoracic aorta was immersed in Krebs-Hepes buffer and marginal tissues were removed to prepare an about 5 mm ring specimen. This ring specimen was preincubate in Krebs-Hepes buffer at 37° C. for 10 min and transferred to Krebs-Hepes buffer containing 0.25 mM lucigenin (SIGMA). 500 μM NADH (SIGMA) was added and chemiluminescence value (chemiluminescence: unit RLU: relative light units) was measured using a luminometer (MULTI-BIOLUMAT LB9505C, Warrack.Berthold) at 37° C. for 10 min. The total value of chemiluminescence was calculated from the area under the curve (hereinafter to be referred to as “AUC”) drawn by plotting the chemiluminescence value (vertical axis) relative to the measurement time (horizontal axis). The measured total value of chemiluminescence was divided by the wet weight of the vascular ring specimen and standardized to the superoxide anion production per aorta unit weight.
# The inhibitory rate (%) was calculated from the following formula: inhibitory rate (%)=100−[(A−C)/(B−C)]×100
# wherein A was the standardized value of chemiluminescence of diabetic rat administered with the test compound, B was the standardized value of chemiluminescence of diabetic rat without administration of the test compound, and C was the standardized value of chemiluminescence of normal rat without administration of the test compound.
compound,measurement,setting,value
C[C@@H](Nc1nnc(-c2ccccc2)c2ccccc12)C1CCCCC1.O=C(O)/C=C\C(=O)O [compound A],"inhibitory rate (%), NAD(P)H oxidase in normal rat aorta",[1],1.8%
same,effect on superoxide anion production in normal rat,[1]; result in words,did not affect the superoxide anion production
same,chemiluminescence (×10^5 RLU/wet weight of aorta),"[1]; normal rat aorta, mean ± standard error",3.89 ± 3.0 ×10^5 RLU/wet weight of aorta
same,"inhibitory rate (%), leukocyte NADPH oxidase","[2]; 1 μM, PMA-stimulated rat leukocytes, mean ± standard error",2.4 ± 13.6%
same,inhibitory effect on leukocyte NADPH oxidase,[2]; result in words,did not show an inhibitory effect on leukocyte NADPH oxidase
same,MPO activity in myocyte,[3],128%*
same,"p22^phox expression ((p22^Phox)/(β-actin), normal as 100%)","[4]; oxidized LDL 100 μg/mL + 0.1 μM compound, mean ± standard error",116.64 ± 16.61 %
same,p22^Phox expression relative to the normal group,[4]; oxidized LDL addition,1.2 fold
same,"inhibitory rate (%), NAD(P)H oxidase in diabetic rat aorta",[5]; 1 mg/kg oral,76.9%
same,"inhibitory rate (%), NAD(P)H oxidase in diabetic rat aorta",[5]; 10 mg/kg oral,105.8%
same,"inhibitory rate (%), NAD(P)H oxidase activity in diabetic rat aorta (Table 2)",[5]; 10 mg/kg orally once a day for 3 days,105.8%
same,chemiluminescence (×10^5 RLU/wet weight of aorta),"[5]; diabetic rat aorta, 10 mg/kg orally once a day for 3 days, mean ± standard error",3.8 ± 0.6 ×10^5 RLU/wet weight of aorta
